Test results as given in patent publication US10676504B2 (Colorado State University Research Foundation, priority 2015, dated 2020).
Read-outs that look alike come from different tables or passages of the source. Values belong to the compound of their own block, whether it stands above or below them.

Legend:
HDAC3/NCor2 = target: T1, HDAC3/NCor2 (Homo sapiens, UniProt O15379); experiment: HDAC biochemical assay (Example 16)
T1 construct: recombinant, full-length HDAC protein; purchased BPS Biosciences
Method: Thus, small-molecule inhibitors were arrayed at twelve-point dose-response (3-fold increments) in 384-well library plates and transferred by robotic pin device to replicate assay plates containing assay buffer under reducing conditions (TCEP 200 μM). A liquid handling device then transferred a tripeptide substrate terminating in acetyl-lysine and amide conjugated to 4-methyl-7-aminocoumarin (AMC), recombinant human histone deacetylase (BPS Bioscience, San Diego, Calif.), and recombinant human trypsin (Sigma-Aldrich, St. Louis, Mo.). Following deacetylase hydrolysis of acetyl-lysine, trypsin cleavage liberated the AMC fluorophore. Kinetic (fluorescence per unit time) and end-point (total fluorescence) data were captured by a multilabel plate reader. Replicate data were analyzed by curve-fit using logistic regression (Spotfire Decision-Site).

HDAC2 [1] = target: T2, HDAC2 (Homo sapiens, UniProt Q92769); experiment: HDAC biochemical assay of P5-P12 (Table P1); set-up: The recombinant, full-length HDAC protein (BPS Biosciences) was incubated; purchased BPS Biosciences
HDAC3 = target: T3, HDAC3 (Homo sapiens, UniProt O15379); experiment: HDAC biochemical assay of P5-P12 (Table P1)
T3 construct: The recombinant, full-length HDAC protein (BPS Biosciences) was incubated; purchased BPS Biosciences

HDAC1 = HDAC1 (Homo sapiens, UniProt Q13547); experiment: HDAC biochemical assay of P5-P12 (Table P1); set-up: The recombinant, full-length HDAC protein (BPS Biosciences) was incubated; purchased BPS Biosciences
HDACs 1-3 = experiment: HDAC biochemical assay of P5-P12, summary statements
HDAC2 [2] = target: T2, HDAC2; experiment: HDAC2 inhibition, trypsin-coupled kinetic fluorescence homogeneous assay (Example 10); assay type: biochemical; set-up: The recombinant, full-length HDAC protein (BPS Biosciences) was incubated; purchased BPS Biosciences; settings: Conc (uM); logistic curve fit of activity versus concentration; some fits reached max iterations; read-out: X50
Method: To measure the inhibitory effect on deacetylase function in vitro, a continuous kinetic biochemical assay miniaturized to 384-well plate format was optimized.
Fluorescence measurements were obtained in real-time on a Varioskan microtiter plate reader (Thermo).
A biochemical study of HDAC2 inhibition was carried out using the trypsin-coupled, kinetic fluorescence homogeneous assay described above.

colon cancer cell lines [3] = test system: colon cancer cell lines
From the text: (§1) All compounds submitted for screening were initially tested at a single high dose (10^-5 M) against the fill NCI 60 cell panel. Only compounds which satisfied pre-determined threshold inhibition criteria in a minimum number of cell lines progressed to a second round of testing utilizing a more comprehensive 5-dose inhibition assay. The threshold inhibition criteria for progression to the 5-dose assays were selected to efficiently capture compounds with anti-proliferative activity based on historical DTP screening data.
(§2) Concentrations for G150, IC50, TGI, and LC50 were calculated for all cell lines tested, and heat plots were prepared.

melanoma cell lines = experiment: cells; settings: read-out: Average Concentration (M), LC50, Melanoma
From the text: as §1, §2

NCI-60 cancer cell lines [4] = experiment: cells
colon cancer cell lines [5] = experiment: cells; settings: read-out: Average Concentration (M), LC50, Colon
From the text: as §1, §2

NCI-60 cancer cell lines [6] = settings: five-dose
[7] = read-out: GI50 concentrations (M), order of magnitude

T3 sequence (O15379 whole entry): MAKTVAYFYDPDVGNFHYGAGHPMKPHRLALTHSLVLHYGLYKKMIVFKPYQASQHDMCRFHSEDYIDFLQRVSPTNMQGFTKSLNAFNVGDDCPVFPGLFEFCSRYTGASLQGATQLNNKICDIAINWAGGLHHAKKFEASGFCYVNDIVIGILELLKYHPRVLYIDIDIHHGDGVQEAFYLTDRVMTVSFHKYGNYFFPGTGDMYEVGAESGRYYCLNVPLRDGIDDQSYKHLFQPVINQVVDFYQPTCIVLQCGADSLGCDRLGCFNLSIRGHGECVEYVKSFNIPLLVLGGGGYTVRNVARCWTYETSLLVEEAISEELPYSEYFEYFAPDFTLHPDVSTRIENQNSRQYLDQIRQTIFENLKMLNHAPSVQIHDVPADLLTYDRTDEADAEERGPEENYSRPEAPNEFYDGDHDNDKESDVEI
T3 sequence (Q9Y618 395-489 partner limits assumed): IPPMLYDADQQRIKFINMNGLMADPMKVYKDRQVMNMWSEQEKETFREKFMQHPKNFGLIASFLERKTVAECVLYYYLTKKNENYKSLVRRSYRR
HDAC1, sequence (Q13547 whole entry): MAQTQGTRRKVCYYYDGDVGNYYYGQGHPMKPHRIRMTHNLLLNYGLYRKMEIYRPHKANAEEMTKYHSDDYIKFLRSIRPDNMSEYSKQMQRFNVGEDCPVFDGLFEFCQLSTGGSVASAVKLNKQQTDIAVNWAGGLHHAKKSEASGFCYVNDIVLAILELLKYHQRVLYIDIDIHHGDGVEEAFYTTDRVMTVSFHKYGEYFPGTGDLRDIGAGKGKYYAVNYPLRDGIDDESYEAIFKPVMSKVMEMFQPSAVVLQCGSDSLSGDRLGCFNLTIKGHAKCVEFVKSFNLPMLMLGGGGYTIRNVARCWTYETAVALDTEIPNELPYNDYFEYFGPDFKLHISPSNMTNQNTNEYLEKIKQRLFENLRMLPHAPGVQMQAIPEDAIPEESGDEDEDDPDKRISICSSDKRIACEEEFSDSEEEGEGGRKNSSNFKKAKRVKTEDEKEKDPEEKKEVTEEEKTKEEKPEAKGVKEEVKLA
T2 sequence (Q92769 whole entry): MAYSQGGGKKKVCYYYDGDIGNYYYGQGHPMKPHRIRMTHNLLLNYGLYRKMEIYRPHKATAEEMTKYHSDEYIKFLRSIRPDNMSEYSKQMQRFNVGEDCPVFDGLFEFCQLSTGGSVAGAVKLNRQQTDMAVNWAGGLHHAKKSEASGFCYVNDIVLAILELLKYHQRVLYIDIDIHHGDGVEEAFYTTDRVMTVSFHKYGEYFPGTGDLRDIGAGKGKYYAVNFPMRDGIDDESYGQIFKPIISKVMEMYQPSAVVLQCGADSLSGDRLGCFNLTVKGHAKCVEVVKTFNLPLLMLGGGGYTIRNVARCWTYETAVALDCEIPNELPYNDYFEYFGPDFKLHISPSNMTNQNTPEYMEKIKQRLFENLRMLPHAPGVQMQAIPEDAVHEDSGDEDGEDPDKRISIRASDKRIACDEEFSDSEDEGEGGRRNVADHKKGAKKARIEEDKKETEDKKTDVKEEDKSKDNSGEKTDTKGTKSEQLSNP
T1 sequence (O15379 whole entry): as the sequence (O15379 whole entry) above
T1 sequence (Q9Y618 395-489 partner limits assumed): as the sequence (Q9Y618 395-489 partner limits assumed) above

Compound: CC(C)[C@@H]1NC(=O)[C@@]2(C)CSC(=N2)c2csc(n2)CNC(=O)C[C@H](/C=C/CCSC(c2ccccc2)(c2ccccc2)c2ccccc2)OC1=O
- ring closure, yield of all isomers (from CC(C)[C@H](NC(=O)[C@@]1(C)CSC(c2csc(CNC(=O)OC(C)(C)C)n2)=N1)C(=O)O[C@@H](/C=C/CCSC(c1ccccc1)(c1ccccc1)c1ccccc1)CC(=O)OCC[Si](C)(C)C, amide bond, 2 steps): 87%

Compound: CC(C)[C@@H]1NC(=O)[C@]2(C)CSC(=N2)c2cccc(n2)CNC(=O)C[C@@H](/C=C/CCSC(c2ccccc2)(c2ccccc2)c2ccccc2)NC1=O
- ring closure, yield of all isomers (from COC(=O)C[C@@H](/C=C/CCSC(c1ccccc1)(c1ccccc1)c1ccccc1)NC(=O)[C@@H](NC(=O)[C@]1(C)CSC(c2cccc(CNC(=O)OC(C)(C)C)n2)=N1)C(C)C, amide bond, HATU/HOBt/DIPEA, acetonitrile, 0.97 mM, 3 steps): 33%

Compound: CC(C)[C@@H]1NC(=O)[C@]2(C)CSC(=N2)c2cccc(n2)CNC(=O)C[C@@H](/C=C/CCSC(c2ccccc2)(c2ccccc2)c2ccccc2)OC1=O
- ring closure, yield of all isomers (from CC(C)[C@H](NC(=O)[C@]1(C)CSC(c2cccc(CNC(=O)OC(C)(C)C)n2)=N1)C(=O)O[C@H](/C=C/CCSC(c1ccccc1)(c1ccccc1)c1ccccc1)CC(=O)OCC[Si](C)(C)C, amide bond, HATU, acetonitrile, 0.96 mM, 18.0 h, 2 steps): 20%

Compound: CC(C)[C@@H]1NC(=O)[C@]2(C)CSC(=N2)c2ccnc(c2)CNC(=O)C[C@@H](/C=C/CCSC(c2ccccc2)(c2ccccc2)c2ccccc2)NC1=O
- ring closure, yield of all isomers (from COC(=O)C[C@@H](/C=C/CCSC(c1ccccc1)(c1ccccc1)c1ccccc1)NC(=O)[C@@H](NC(=O)[C@]1(C)CSC(c2ccnc(CNC(=O)OC(C)(C)C)c2)=N1)C(C)C, amide bond, HATU/HOBt/DIPEA, acetonitrile, 0.97 mM, 3 steps): 32%

Compound: CC(C)[C@@H]1NC(=O)[C@]2(C)CSC(=N2)c2ccnc(c2)CNC(=O)C[C@@H](/C=C/CCSC(c2ccccc2)(c2ccccc2)c2ccccc2)OC1=O
- ring closure, yield of all isomers (from CC(C)[C@H](NC(=O)[C@]1(C)CSC(c2ccnc(CNC(=O)OC(C)(C)C)c2)=N1)C(=O)O[C@H](/C=C/CCSC(c1ccccc1)(c1ccccc1)c1ccccc1)CC(=O)OCC[Si](C)(C)C, amide bond, HATU/HOBt/DIPEA, acetonitrile, 1.0 mM, 18.0 h, 2 steps): 23%

Compound: CC(C)[C@@H]1NC(=O)[C@]2(C)CSC(=N2)c2coc(n2)CNC(=O)C[C@@H](/C=C/CCSC(c2ccccc2)(c2ccccc2)c2ccccc2)OC1=O
- ring closure, yield of all isomers (from CC(C)[C@H](NC(=O)[C@]1(C)CSC(c2coc(CNC(=O)OC(C)(C)C)n2)=N1)C(=O)O[C@H](/C=C/CCSC(c1ccccc1)(c1ccccc1)c1ccccc1)CC(=O)OCC[Si](C)(C)C, amide bond, T3P, DCM, 0.99 mM, 2 steps): 35%

Compound: CC(C)[C@@H]1NC(=O)[C@]2(C)CSC(=N2)c2csc(n2)CNC(=O)C[C@@H](/C=C/CCSC(c2ccccc2)(c2ccccc2)c2ccccc2)NC1=O
- ring closure, yield of all isomers (from COC(=O)C[C@@H](/C=C/CCSC(c1ccccc1)(c1ccccc1)c1ccccc1)NC(=O)[C@@H](NC(=O)[C@]1(C)CSC(c2csc(CNC(=O)OC(C)(C)C)n2)=N1)C(C)C, amide bond, HATU/iPr2NEt, MeCN, 0.96 mM, 3 steps): 50%

Compound: C[C@@]12CSC(=N1)c1csc(n1)CNC(=O)C[C@@H](/C=C/CCSC(c1ccccc1)(c1ccccc1)c1ccccc1)OC(=O)[C@@H]1CCCN1C2=O
- ring closure, yield of all isomers (from CC(C)(C)OC(=O)NCc1nc(C2=N[C@](C)(C(=O)N3CCC[C@H]3C(=O)O[C@H](/C=C/CCSC(c3ccccc3)(c3ccccc3)c3ccccc3)CC(=O)OCC[Si](C)(C)C)CS2)cs1, amide bond, HATU/iPr2NEt, MeCN, 0.83 mM, 2 steps): 43%

Compound: CC(C)[C@@H]1NC(=O)[C@]2(C)CSC(=N2)c2csc(n2)CNC(=O)C[C@@H](/C=C/CCCC(=O)Nc2ccccc2N)OC1=O [Benzamide (12b)]
- IC50 (HDAC3/NCor2): 14000 nM

- IC50 (HDAC2 [1]; Table P1): 350 nM
- IC50 (HDAC3; Table P1): 332 nM
- IC50 (HDAC1; Table P1): 204 nM
Compound: CCCCCCCC(=O)SCCC=CC1CC(=O)NCc2cccc(n2)C2=NC(C)(CS2)C(=O)NC(C(C)C)C(=O)O1 (centres unmarked) [Compound P5, Depsipeptide Pyridyl “IN”]

- IC50 (HDAC2 [1]; Table P1): 655 nM
- IC50 (HDAC3; Table P1): 320 nM
- IC50 (HDAC1; Table P1): 340 nM
Compound: CCCCCCCC(=O)SCCC=CC1CC(=O)NCc2cc(ccn2)C2=NC(C)(CS2)C(=O)NC(C(C)C)C(=O)O1 (centres unmarked) [Compound P7, Depsipeptide Pyridyl “OUT”]

- IC50 (HDAC2 [1]; Table P1): 472 nM
- IC50 (HDAC3; Table P1): 332 nM
- IC50 (HDAC1; Table P1): 340 nM
Compound: CCCCCCCC(=O)SCCC=CC1CC(=O)NCc2cccc(n2)C2=NC(C)(CS2)C(=O)NC(C(C)C)C(=O)N1 (centres unmarked) [Compound P9, Peptide Isostere Pyridyl “IN”]

- IC50 (HDAC2 [1]; Table P1): 69.8 nM
- IC50 range in words for HDACs 1-3 (HDACs 1-3): double-digit nM range
- IC50 (HDAC3; Table P1): 42.5 nM
- IC50 (HDAC1; Table P1): 42 nM
Compound: CC(C)[C@@H]1NC(=O)[C@]2(C)CSC(=N2)c2cccc(n2)CNC(=O)C[C@@H](/C=C/CCS)NC1=O [Compound P10, Peptide Isostere Pyridyl “IN” Thiol]

- IC50 (HDAC2 [1]; Table P1): 1240 nM
- IC50 range in words for HDACs 1-3 (HDACs 1-3): high nM-μM range
- IC50 (HDAC3; Table P1): 846 nM
- IC50 (HDAC1; Table P1): 817 nM
Compound: CCCCCCCC(=O)SCC/C=C/[C@@H]1CC(=O)NCc2cc(ccn2)C2=N[C@@](C)(CS2)C(=O)N[C@@H](C(C)C)C(=O)N1 [Compound P11, Peptide Isostere Pyridyl “OUT”]

Compound: CCCCCCCC(=O)SCC/C=C/[C@@H]1CC(=O)NCc2nc(cs2)C2=N[C@@](C)(CS2)C(=O)N[C@@H](C(C)C)C(=O)N1 [Largazole peptide isostere]
- IC50 (HDAC2 [1]): 825 nM
- IC50 (HDAC3): 1150 nM
- IC50 (HDAC1): 544 nM

Compound: CC(=O)N[C@@H](CC(C)C)C(=O)N[C@@H](CC(C)C)C(=O)N[C@H](C=O)CCCNC(=N)N [Leupeptin, reference compound]
- IC50 (HDAC2 [2]): 0.308 µM

- IC50 (HDAC2 [2]): 0.0785 µM
Compound: CC(C)[C@@H]1NC(=O)[C@]2(C)CSC(=N2)c2csc(n2)CNC(=O)C[C@@H](/C=C/CCCCS)OC1=O [ab6_162alr1 n + 2 thiol]

Compound: CCCCCCCC(=O)SCC/C=C/[C@@H]1CC(=O)NCc2cccc(n2)C2=N[C@@](C)(CS2)C(=O)N[C@@H](C(C)C)C(=O)O1 [compound of formula bb]
- Total Impacted Cell Lines (n), LC50, Renal (renal cancer cell lines): 2
- Percent of Cell Lines Impacted (%), LC50, Renal (renal cancer cell lines; five-dose): 25%
- Total Impacted Cell Lines (n), LC50, Colon (colon cancer cell lines [3]): 2
- Percent of Cell Lines Impacted (%), LC50, Colon (colon cancer cell lines [3]; five-dose): 29%
- CC50 (melanoma cell lines): 7.01e-07 M
- GI50 (NCI-60 cancer cell lines [4]; read-out: Average Concentration (M), GI50): 7.62e-08 M
- CC50 (colon cancer cell lines [5]): 1.29e-05 M
- Percent of Cell Lines Impacted (%), GI50 (NCI-60 cancer cell lines [6]; 50% Growth Inhibition): 100%
- Percent of Cell Lines Impacted (%), LC50 (NCI-60 cancer cell lines [6]; 50% Lethal Concentration reached): 12%
- Percent of Cell Lines Impacted (%), TGI (NCI-60 cancer cell lines [6]; Total Growth Inhibition): 47%
- Total Impacted Cell Lines (n), TGI (NCI-60 cancer cell lines [6]; Total Growth Inhibition): 27

Compound: CCCCCCCC(=O)SCC/C=C/[C@@H]1CC(=O)NCc2nc(cs2)C2=N[C@@](C)(CS2)C(=O)N[C@@H](C(C)C)C(=O)N1 [drawing 78]
- GI50 (NCI-60 cancer cell lines [4]; [7]): 1e-07 M

Compound: CCCCCCCC(=O)SCC/C=C/[C@@H]1CC(=O)NCc2cccc(n2)C2=N[C@@](C)(CS2)C(=O)N[C@@H](C(C)C)C(=O)O1 [drawing 79]
- GI50 (NCI-60 cancer cell lines [4]; [7]): 1e-08 M
